Assay results reported in patent US20020028809A1 (SUNTORY LIMITED, priority 1999, published 2002).
Read-outs that look alike come from different tables or passages of the source.

Legend:
[1] = biological target: T1, α1β1γδ subtype of nicotinic acetylcholine receptors (Rattus norvegicus, UniProt P18916+P25108+P25109+P25110); experiment: Binding assays at α1β1γδ subtype of nicotinic acetylcholine receptors ([3H]-α-bungarotoxin, rat muscle extract); conditions: for remaining activity at 100 µM / remaining activity at 1000 µM: read-out: control % of [3H]-α-Bgt binding
T1 construct: Native receptor, no construct: "Triton X100 (2% w/v) was added
T1 sequence (P25108 21-457): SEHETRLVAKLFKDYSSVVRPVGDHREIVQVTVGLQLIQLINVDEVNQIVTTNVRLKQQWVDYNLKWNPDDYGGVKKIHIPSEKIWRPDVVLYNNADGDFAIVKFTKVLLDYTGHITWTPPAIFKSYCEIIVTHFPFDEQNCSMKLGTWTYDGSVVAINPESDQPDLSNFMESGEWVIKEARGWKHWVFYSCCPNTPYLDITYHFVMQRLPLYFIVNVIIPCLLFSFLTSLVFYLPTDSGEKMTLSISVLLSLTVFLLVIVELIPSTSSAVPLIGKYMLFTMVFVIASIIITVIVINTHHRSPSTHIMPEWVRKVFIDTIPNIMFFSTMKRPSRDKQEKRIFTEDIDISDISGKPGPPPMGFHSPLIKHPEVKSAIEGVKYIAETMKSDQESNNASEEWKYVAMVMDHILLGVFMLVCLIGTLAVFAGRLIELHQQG
T1 sequence (P25110 22-517): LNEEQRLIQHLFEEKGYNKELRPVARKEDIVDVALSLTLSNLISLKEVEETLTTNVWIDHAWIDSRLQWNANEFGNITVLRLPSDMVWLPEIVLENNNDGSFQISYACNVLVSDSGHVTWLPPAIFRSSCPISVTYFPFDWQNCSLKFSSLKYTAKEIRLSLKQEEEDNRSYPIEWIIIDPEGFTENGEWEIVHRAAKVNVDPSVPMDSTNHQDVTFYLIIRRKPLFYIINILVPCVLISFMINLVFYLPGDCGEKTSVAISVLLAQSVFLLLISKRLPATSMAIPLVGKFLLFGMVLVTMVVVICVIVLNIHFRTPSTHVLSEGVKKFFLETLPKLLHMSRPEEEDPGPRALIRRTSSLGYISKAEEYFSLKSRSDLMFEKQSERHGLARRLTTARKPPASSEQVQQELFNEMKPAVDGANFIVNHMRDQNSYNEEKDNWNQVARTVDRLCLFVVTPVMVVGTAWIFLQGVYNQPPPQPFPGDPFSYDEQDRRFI
T1 sequence (P25109 24-501): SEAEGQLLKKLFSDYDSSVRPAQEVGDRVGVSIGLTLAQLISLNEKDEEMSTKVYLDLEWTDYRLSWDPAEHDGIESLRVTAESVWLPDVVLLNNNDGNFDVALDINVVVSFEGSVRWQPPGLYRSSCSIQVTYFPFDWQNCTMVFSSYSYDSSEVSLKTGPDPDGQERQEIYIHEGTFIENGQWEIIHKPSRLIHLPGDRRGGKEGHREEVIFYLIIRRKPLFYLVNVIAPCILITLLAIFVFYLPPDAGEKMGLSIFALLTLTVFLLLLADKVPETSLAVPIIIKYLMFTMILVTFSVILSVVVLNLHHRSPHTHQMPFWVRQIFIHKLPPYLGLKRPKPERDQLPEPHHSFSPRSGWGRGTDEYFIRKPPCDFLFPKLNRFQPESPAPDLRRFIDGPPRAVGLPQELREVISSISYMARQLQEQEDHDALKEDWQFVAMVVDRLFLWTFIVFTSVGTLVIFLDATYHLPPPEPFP

[2] = biological target: T2, human α4β2 subtype of nicotinic acetylcholine receptors (Homo sapiens, UniProt P17787+P43681); experiment: Agonist activities at human α4β2 subtype of nicotinic acetylcholine receptors expressed in Xenopus oocytes (membrane potential holding method); format: cell-based; conditions: for Emax at 100 µM: read-out: Agonist activity: control % by response at 100 μM of the test compound
T2 construct: expressed in transfected cells; host or cells: Xenopus laevis oocytes injected with 50 ng each of α4 and β2 cRNA (pSP64 polyA vector)
T2 sequence (P43681 29-627 limits assumed): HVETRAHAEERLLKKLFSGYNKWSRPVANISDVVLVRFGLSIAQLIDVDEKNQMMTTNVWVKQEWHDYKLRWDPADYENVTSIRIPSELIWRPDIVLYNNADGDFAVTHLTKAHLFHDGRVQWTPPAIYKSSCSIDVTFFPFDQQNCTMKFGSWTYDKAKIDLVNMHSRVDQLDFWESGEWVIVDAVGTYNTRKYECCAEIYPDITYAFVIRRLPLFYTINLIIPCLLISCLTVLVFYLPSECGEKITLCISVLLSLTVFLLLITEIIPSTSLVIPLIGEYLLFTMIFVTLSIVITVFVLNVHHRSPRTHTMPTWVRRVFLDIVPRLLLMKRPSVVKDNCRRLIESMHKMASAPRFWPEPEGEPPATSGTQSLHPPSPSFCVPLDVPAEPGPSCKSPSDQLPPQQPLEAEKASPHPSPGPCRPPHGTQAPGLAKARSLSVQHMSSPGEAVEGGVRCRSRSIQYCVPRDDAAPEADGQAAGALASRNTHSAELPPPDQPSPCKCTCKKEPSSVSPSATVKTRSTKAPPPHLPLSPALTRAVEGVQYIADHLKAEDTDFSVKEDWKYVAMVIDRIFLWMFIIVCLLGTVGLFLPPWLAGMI
T2 sequence (P17787 26-502): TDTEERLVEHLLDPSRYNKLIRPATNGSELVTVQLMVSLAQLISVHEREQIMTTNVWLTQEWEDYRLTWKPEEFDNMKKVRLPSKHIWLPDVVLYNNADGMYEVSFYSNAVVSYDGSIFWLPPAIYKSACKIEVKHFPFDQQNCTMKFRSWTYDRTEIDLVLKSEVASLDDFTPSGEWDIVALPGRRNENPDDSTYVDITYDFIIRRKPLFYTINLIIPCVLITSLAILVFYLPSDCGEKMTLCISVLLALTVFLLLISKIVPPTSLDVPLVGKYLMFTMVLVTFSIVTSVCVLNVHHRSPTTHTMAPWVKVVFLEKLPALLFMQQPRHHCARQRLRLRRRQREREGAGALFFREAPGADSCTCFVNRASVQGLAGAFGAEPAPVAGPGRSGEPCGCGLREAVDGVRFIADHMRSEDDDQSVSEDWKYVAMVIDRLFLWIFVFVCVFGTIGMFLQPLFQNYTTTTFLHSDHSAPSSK
Experimental: Agonist effect in human α4β2 subtype of nicotinic acetylcholine receptors are examined by using human nicotinic acetylcholine receptors prepared in oocytes of Xenopus laevis, which is injected with cRNA from the corresponding cloning cDNA of human α4 and β2 subunits of nicotinic acetylcholine receptors, and to measure the expression of electric response by adding the test compounds to perfusion solution by means of membrane potential holding method.
Agonist Activities at Human α4β2 Subtype of Nicotinic Acetylcholine Receptors
(1) Preparation of cRNA of Human α4β2 Subtype of Nicotinic Acetylcholine Receptors
Obtained hnACh-R α4 cDNA and hnACh-R β2 cDNA were inserted to the cRNA expression vector (pSP64 polyA) having SP6 RNA promoter to construct hnACh-R α4/pSP64 polyA and hnACh-R β2/pSP64 polyA, respectively. After cutting from expression vector by restriction enzyme (EcoRI), transcription was performed by affecting SP6 RNA polymerase in the presence of cap analogues to obtain hnACh-R α4 cRNA and hnACh-R β2 cRNA, respectively.
(2) Expression of Human α4β2 Subtype Nicotinic Acetylcholine Receptors in Xenopus oocytes
Oocytes were purchased from Kitanihonseibutsukyohzai Co., Ltd., which were already enucleated from Xenopus laevis, and used in this experiment.
The oocytes were treated with collagenase (Sigma type I; 1 mg/ml) in calcium-free modified Birth's solution (88 mM of NaCl, 1 mM of KCl, 2.4 mM of NaHCO3, 0.82 mM of MgSO4, 15 mM of HEPES, pH 7.6) under gently stirring at room temperature for 90 minutes, and washed out the enzyme from the tissue. Then, oocytes were separated from ovarian follicle by tweezers, and isolated oocytes were placed in antibiotics containing modified Birth's solution (88 mM of NaCl, 1 mM of KCl, 2.4 mM of NaHCO3, 0.82 mM of MgSO4, 15 mM of HEPES, pH 7.6, and 0.1 v/v% of mixture solution containing of penicillin and streptomycin for incubation; Sigma Co.). […] In oocytes, heterogeneous quintuple [(α4)2(β2)3] was composed by translation of injected cRNAs, and ion channel receptors were constructed on cell membrane.
(3) Agonist Activities at Human α4β2 Subtype of Nicotinic Acetylcholine Receptors
Recordings of response at human α4β2 subtype of nicotinic acetylcholine receptors by means of membrane potential holding method were performed as follow. […] Test compounds were added to the perfusion solution, and recorded the peak strength of induced inward current. In order to normalize the response of test compounds, the response with acetylcholine (Ach) were recorded before and after application of the test compounds. Generally in the oocytes just after isolated, the response of intrinsic muscarinic acetylcholine receptors, which is inward electric current caused by activation of calcium dependence chloride ion channels with increase of the intracellular calcium concentration by stimulation of receptors, is observed. […] Therefore, the responses observed in oocytes with injection of hnACh-R α4 cRNA and hnACh-R β2 cRNA, i.e., the inward current induced by the intracellular influx of sodium ion according to the stimulation of receptors, would be the freshly observed responses of human α4β2 subtype nicotinic acetylcholine receptors.

[3] = 100 μM test compound, in comparison with the response at 10 μM acetylcholine (100%)
[4] = Xenopus oocytes expressing human α4β2, held at −50 mV, peak inward current, read-out: Agonist activity (ED50)

SMILES	remaining activity at 100 µM [1] [%]	remaining activity at 1000 µM [1] [%]	Emax at 100 µM [2] [%]	further results
N=C1SCCN1Cc1ccc(Cl)nc1 [Compound 5, 3-(6-chloro-3-pyridyl)methyl-2-iminothiazolidine]				Ki [1]: 7.65 µM; Emax at 100 µM [2, 3]: 4.9%
N=c1ccccn1Cc1ccc(Cl)nc1 [Compound 7, 1-(6-chloro-3-pyridyl)methyl-2-imino-1,2-dihydropyridine]				Ki [1]: 71.2 µM; Emax at 100 µM [2, 3]: 16%
N=c1sccn1Cc1ccc(Cl)nc1 [Compound 8, 3-(6-chloro-3-pyridyl)methyl-2-imino-2,3-dihydrothiazole]				Ki [1]: 10.2 µM; EC50 [2, 4]: 4.2 µM
Nc1nccn1Cc1ccc(Cl)nc1 [Compound 9, 2-amino-1-(6-chloro-3-pyridyl)methylimidazole]	86	49		EC50 [2, 4]: 92 µM
N=c1sccn1Cc1ccc(Br)nc1 [Compound 11, 3-(6-bromo-3-pyridyl)methyl-2-imino-2,3-dihydrothiazole]	13	5	47	
N=c1sccn1Cc1ccc(F)nc1 [Compound 12, 3-(6-fluoro-3-pyridyl)methyl-2-imino-2,3-dihydrothiazole]	20	-2	21	
N=C1NCCN1Cc1ccc(Cl)nc1 [Compound 13, 1-(6-Chloro-3-pyridyl)methyl-2-iminoimidazolidine]	26	8		EC50 [2, 4]: 14.7 µM
N=C1CCCN1Cc1ccc(Cl)nc1 [Compound 14, 1-(6-Chloro-3-pyridyl)methyl-2-iminopyrrolidine]	14	0		EC50 [2]: 27.1 µM
N=C1SCCN1Cc1ccc(Cl)cc1 [Compound 31, 3-(4-chlorobenzyl)-2-iminothiazolidine]	37	10	4	
N=C1SCCN1Cc1ccnnc1 [Compound 33, 2-imino-3-(4-pyridazinyl)methylthiazolidine]	15	1	6	
N=C1SCCN1Cc1cnc(Cl)s1 [Compound 34, 3-(2-chloro-5-thiazolyl)methyl-2-iminothiazolidine]	14	-1	13	
N=c1ccc(-c2ccccc2)nn1Cc1ccc(Cl)nc1 [Compound 44, 2-(6-chloro-3-pyridyl)methyl-3-imino-6-phenyl-2,3-dihydropyridazine]	80	26	10	
Nc1nccn1Cc1cccnc1 [Compound 55, 2-amino-i-(3-pyridyl)methylimidazole]				Ki ([1]; rat muscle extract, [3H]-α-Bgt (1 nM), read-out: Affinities for receptors Ki α1β1γδ): 66 µM; Emax at 100 µM [2, 3]: 17%
